In data set [1] the test system is Sphaerotheca fuliginea. Kind of data set: Sphaerotheca test (cucumber)/protective. The data set is classed as in vivo. To be noted: protective, application rate 100 g/ha, evaluation 10 days after inoculation, 100% = no infection. Here is the method:
Sphaerotheca Test (Cucumber)/Protective
(§1) Solvent: 47 parts by weight of acetone
(§2) Emulsifier: 3 parts by weight of alkylaryl polyglycol ether
(§3) To produce a suitable preparation of active compound, 1 part by weight of active compound is mixed with the stated amounts of solvent and emulsifier, and the concentrate is diluted with water to the desired concentration.
To test for protective activity, young plants are sprayed with the preparation of active compound at the stated application rate. After the spray coating has dried on, the plants are inoculated with an aqueous spore suspension of Sphaerotheca fuliginea. The plants are then placed in a greenhouse at about 23° C. and a relative atmospheric humidity of about 70%.
Evalution is carried out 10 days after the inoculation. 0% means an efficacy which corresponds to that of the control, whereas an efficacy of 100% means that no infection is observed.

For data set [2], the system named is Erysiphe graminis f.sp. tritici. In words: Erysiphe test (wheat)/protective. The conditions noted are these: protective, application rate 250 g/ha, evaluation 7 days after inoculation, 100% = no infection. It counts as in vivo. Here is the method: Erysiphe Test (Wheat)/Protective
(§4) Solvent: 25 parts by weight of N,N-dimethylacetamide
Emulsifier: 0.6 part by weight of alkylaryl polyglycol ether
as §3
To test for protective activity, young plants are sprayed with the preparation of active compound at the stated application rate.
After the spray coating has dried on, the plants are dusted with spores of Erysiphe graminis f.sp. tritici.
The plants are placed in a greenhouse at a temperature of about 20° C. and a relative atmospheric humidity of about 80% to promote the development of mildew pustules.
(§5) Evaluation is carried out 7 days after the inoculation. 0% means an efficacy which corresponds to that of the control, whereas an efficacy of 100% means that no infection is observed.

Data set [3] concerns Venturia inaequalis. Kind of data set: Venturia test (apple)/protective. The data set is classed as in vivo. The conditions noted are these: protective, application rate 100 g/ha, evaluation 12 days after inoculation, 100% = no infection. Here is the method:
Venturia Test (Apple)/Protective
as §1, §2, §3
To test for protective activity, young plants are sprayed with the preparation of active compound at the stated application rate. After the spray coating has dried on, the plants are inoculated with an aqueous conidia suspension of the apple pathogen Venturia inaequalis and then remain in an incubation cabin at about 20° C. and 100% relative atmospheric humidity for 1 day.
The plants are then placed in the greenhouse at about 21° C. and a relative atmospheric humidity of about 90%.
Evaluation is carried out 12 days after the inoculation. 0% means an efficacy which corresponds to that of the control, whereas an efficacy of 100% means that no infection is observed.

For data set [4], the system named is Podosphaera leucotricha. In words: Podosphaera test (apple)/protective. It counts as in vivo. The conditions noted are these: protective, application rate 100 g/ha, evaluation 10 days after inoculation, 100% = no infection. Here is the method: Podosphaera Test (Apple)/Protective
as §1, §2, §3
To test for protective activity, young plants are sprayed with the preparation of active compound at the stated application rate. After the spray coating has dried on, the plants are inoculated with an aqueous spore suspension of the apple mildew pathogen Podosphaera leucotricha. The plants are then placed in a greenhouse at about 23° C. and a relative atmospheric humidity of about 70%.
Evaluation is carried out 10 days after the inoculation. 0% means an efficacy which corresponds to that of the control, whereas an efficacy of 100% means that no infection is observed.

Data set [5] has as its system Pyrenophora teres. In words: Pyrenophora teres test (barley)/curative. The conditions noted are these: curative, application rate 250 g/ha, evaluation 7 days after inoculation, 100% = no infection. The data set is classed as in vivo. Here is the method: Pyrenophora Teres Test (Barley)/Curative
as §4
Emulsifier: 0.6 parts by weight of alkylaryl polyglycol ether
as §3
To test for curative activity, young plants are sprayed with a conidia suspension of Pyrenophora teres. The plants remain in an incubation cabin at 20° C. and 100% relative atmospheric humidity for 48 hours. The plants are then sprayed with the preparation of active compound at the stated application rate.
The plants are placed in a greenhouse at a temperature of about 20° C. and a relative atmospheric humidity of about 80%.
as §5

Each structure is given as a SMILES string.

In the case of `CCOC(=O)c1c(CC)nn(C)c1NC(=O)Cc1ccc(-c2ccc(OC(F)(F)F)cc2)cc1` [drawing 287], the Efficacy in % in data set [1] is listed as 100%.
`CCOC(=O)c1c(CC)nn(C)c1NC(=O)Cc1cccc(Oc2ccc(Cl)cc2)c1` [drawing 282] came in with an Efficacy in % in data set [2] of 100%.
`CCc1nn(C)c(NC(=O)Cc2ccc(-c3ccc(OC(F)(F)F)cc3)cc2)c1Cl` [drawing 292]: in data set [3], the Efficacy in % was 96%.
Same read-out and setting: then `CCOC(=O)c1c(CC)nn(C)c1NC(=O)Cc1cccc(Oc2ccc(OC(F)(F)F)cc2)c1` [drawing 290], with 90%; and `CCOC(=O)c1c(CC)nn(C)c1NC(=O)Cc1ccc(-c2ccc(OC(F)(F)F)cc2)cc1` [drawing 291], with 93%.
The compound `CCc1nn(C)c(NC(=O)Cc2ccc(-c3ccc(OC(F)(F)F)cc3)cc2)c1Cl` [drawing 286] showed an Efficacy in % in data set [4] of 100%.
As for `CCOC(=O)c1c(CC)nn(C)c1NC(=O)Cc1ccc(-c2ccc(OC(F)(F)F)cc2)cc1` [drawing 285], the Efficacy in % in data set [4] came to 100%.
In data set [3], `CCc1cc(NC(=O)Cc2ccc(-c3ccc(OC(F)(F)F)cc3)cc2)n(C)n1` returned an Efficacy in % of 96%.
In turn, `CCc1nn(C)c(NC(=O)Cc2ccc(-c3ccc(OC(F)(F)F)cc3)cc2)c1Cl` [drawing 288] registered an Efficacy in % in data set [1] of 100%.
Compound `CCOC(=O)c1c(CC)nn(C)c1NC(=O)Cc1ccc(OC)cc1` [Example 1, 4-ethoxycarbonyl-3-ethyl-5-(4-methoxyphenylacetyl)-amino-1-methylpyrazole] showed a melting point of 112 to 113 °C.
Consider `CCOC(=O)c1c(CC)nn(C)c1NC(=O)Cc1cccc(Oc2ccc(Cl)cc2)c1` [drawing 283], for which, in data set [5], the Efficacy in % came to 100%.
Consider `CCc1nn(C)c(NC(=O)Cc2ccc(Br)cc2)c1Cl` [Example 5, 5-(4-bromophenylacetyl)-amino-4-chloro-3-ethyl-1-methylpyrazole], for which the melting point was 167 to 168 °C.
The compound `CCOC(=O)c1c(CC)nn(C)c1NC(=O)Cc1cccc(Oc2ccc(OC(F)(F)F)cc2)c1` [drawing 284] came in with an Efficacy in % in data set [4] of 92%.

As a reminder, the melting point is the temperature, or range, at which the solid turns liquid.

The values above are taken from patent US6444612B1, “Use of 5-amino-pyrazol-derivatives for combating micro-organisms” (Bayer Aktiengesellschaft, priority 1998, dated 2002).
